Tested on: HCV genotype-1a variant with glutamine 30 changed to glutamate in the NS5A protein
Assay type: cell-based
Conditions: test compound titrated with BMS-790052 fixed at 200 nM; genotype 1a Q30E replicon
Summary of the method: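 Synergy was assessed by combining several fixed amounts of an NS5A-targeting compound with a titration of the second compound of interest.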

## Cc1c(F)cccc1C(=O)N[C@H](c1ncc(-c2ccc(-c3ccc(-c4cnc([C@@H](NC(=O)c5cccc(F)c5C)C(C)C)[nH]4)cc3)cc2)[nH]1)C(C)C [Compound S-97]
  Fold-Synergistic 1a (Q30E): >100 fold

## CC(C)(C(=O)N[C@H](c1nc(-c2ccc(-c3ccc(-c4c[nH]c([C@@H](NC(=O)C(C)(C)C(O)c5ccccc5)C(C)(C)C)n4)cc3)cc2)c[nH]1)C(C)(C)C)C(O)c1ccccc1 (single isomer, unassigned) [Compound N-127B]
  Fold-Synergistic 1a (Q30E): >100 fold

## CC(C)[C@H](NC(=O)C1(CF)CC1)c1ncc(-c2ccc(-c3ccc(-c4cnc([C@@H](NC(=O)C5(CF)CC5)C(C)C)[nH]4)cc3)cc2)[nH]1 [Compound P-73]
  Fold-Synergistic 1a (Q30E): >100 fold

## COC(=O)NC(C(=O)N1CCCC1c1ncc(-c2ccc(-c3ccc(-c4cnc(C(NC(=O)C5CCC(F)(F)CC5)C(C)(C)C)[nH]4)cc3)cc2)[nH]1)C(C)C (centres unmarked) [Compound B-192]
  Fold-Synergistic 1a (Q30E): >10 fold

## CC(C)(C)[C@H](NC(=O)C1CCC(F)(F)CC1)c1nc(-c2ccc(-c3ccc4c(c3)CCc3nc([C@@H](NC(=O)C5CCC(F)(F)CC5)C(C)(C)C)[nH]c3-4)cc2)c[nH]1 [Compound B10]
  Fold-Synergistic 1a (Q30E): >100 fold

## O=C(c1cnc(Cl)c2ccccc12)N1CCC[C@H]1c1ncc(-c2ccc(-c3ccc(-c4cnc([C@@H]5CCCN5C(=O)c5cnc(Cl)c6ccccc56)[nH]4)cc3)cc2)[nH]1 [Compound S-200]
  Fold-Synergistic 1a (Q30E): >100 fold

## CC(C)(C)[C@H](NC(=O)C1(C(O)c2ccccc2)CC1)c1nc(-c2ccc(-c3ccc(-c4c[nH]c([C@@H](NC(=O)C5(C(O)c6ccccc6)CC5)C(C)(C)C)n4)cc3)cc2)c[nH]1 (single isomer, unassigned) [Compound N-126C]
  Fold-Synergistic 1a (Q30E): >100 fold

## COCC1(C(=O)N[C@H](c2nc(-c3ccc(-c4ccc(-c5c[nH]c([C@@H](NC(=O)C6(COC)CCC(F)(F)CC6)C(C)(C)C)n5)cc4)cc3)c[nH]2)C(C)(C)C)CCC(F)(F)CC1 [Compound P-41]
  Fold-Synergistic 1a (Q30E): >100 fold

## COC(C)(C)C(=O)N[C@H](c1nc(-c2ccc(-c3ccc(-c4c[nH]c([C@@H](NC(=O)C(C)(C)OC)C(C)C)n4)cn3)cc2)c[nH]1)C(C)C.O=C(O)C(F)(F)F [Compound N-102]
  Fold-Synergistic 1a (Q30E): >100 fold

## COC(C)(C)C(=O)N[C@H](c1nc(-c2ccc(-c3ccc(-c4c[nH]c([C@@H](NC(=O)C(C)(C)OC)C(C)(C)C)n4)c(F)c3)cc2)c[nH]1)C(C)(C)C.O=C(O)C(F)(F)F [Compound N-94]
  Fold-Synergistic 1a (Q30E): >100 fold

## CC1(C)CC1C(=O)N[C@H](c1ncc(-c2ccc(-c3ccc(-c4cnc([C@@H](NC(=O)C5CC5(C)C)C(C)(C)C)[nH]4)cc3)cc2)[nH]1)C(C)(C)C (single isomer, unassigned) [Compound B81]
  Fold-Synergistic 1a (Q30E): >100 fold

## CC(C)(CF)[C@H](NC(=O)C1CCC(F)(F)CC1)c1ncc(-c2ccc(-c3ccc(-c4cnc([C@@H](NC(=O)C5CCC(F)(F)CC5)C(C)(C)CF)[nH]4)cc3)cc2)[nH]1 [Compound Y-69]
  Fold-Synergistic 1a (Q30E): >100 fold

## CC(C)[C@H](NC(=O)C(C)(C)F)c1nc(-c2ccc(-c3ccc(-c4c[nH]c([C@@H](NC(=O)C(C)(C)F)C(C)C)n4)c(F)c3)cc2)c[nH]1.O=C(O)C(F)(F)F [Compound N-90]
  Fold-Synergistic 1a (Q30E): >100 fold

## CC(C)(OCC(F)F)C(=O)N[C@H](c1nc(-c2ccc(-c3ccc(-c4c[nH]c([C@@H](NC(=O)C(C)(C)OCC(F)F)C(C)(C)C)n4)cc3)cc2)c[nH]1)C(C)(C)C [Compound N-116]
  Fold-Synergistic 1a (Q30E): <10 fold

## CC(C)(C)[C@H](NC(=O)C12CCC(CC1)C2)c1nc(-c2ccc(-c3ccc(-c4c[nH]c([C@@H](NC(=O)C56CCC(CC5)C6)C(C)(C)C)n4)cc3)cc2)c[nH]1 [Compound S-261]
  Fold-Synergistic 1a (Q30E): >100 fold

## CC(C)(C)[C@H](NC(=O)C1CCC(F)(F)CC1)c1nc(-c2ccc(-c3ncc(-c4c[nH]c([C@@H](NC(=O)C5CCC(F)(F)CC5)C(C)(C)C)n4)cn3)cc2)c[nH]1 [Compound N-104]
  Fold-Synergistic 1a (Q30E): >100 fold

## C[C@H]1CCN(C(=O)C(=O)N2CCC(F)(F)CC2)C1c1nc(-c2ccc(-c3ccc(-c4c[nH]c(C5[C@@H](C)CCN5C(=O)C(=O)N5CCC(F)(F)CC5)n4)cc3)cc2)c[nH]1 (some centres unmarked) [Compound W-186]
  Fold-Synergistic 1a (Q30E): >100 fold

## CC(C)[C@H](NC(=O)N1CCC(F)(F)CC1)c1nc(-c2ccc(-c3ccc(-c4c[nH]c([C@@H](NC(=O)N5CCC(F)(F)CC5)C(C)C)n4)cc3)cc2)c[nH]1 [Compound P-130]
  Fold-Synergistic 1a (Q30E): >100 fold

## CC(C)[C@H](NC(=O)C(c1ccccc1)c1ccccc1)c1ncc(-c2ccc(-c3ccc(-c4cnc([C@@H](NC(=O)C(c5ccccc5)c5ccccc5)C(C)C)[nH]4)cc3)cc2)[nH]1 [Compound S-12]
  Fold-Synergistic 1a (Q30E): >100 fold

## CC(C)[C@H](NC(=O)c1sccc1F)c1ncc(-c2ccc(-c3ccc(-c4cnc([C@@H](NC(=O)c5sccc5F)C(C)C)[nH]4)cc3)cc2)[nH]1 [Compound Y-28]
  Fold-Synergistic 1a (Q30E): >100 fold

## CC(C)(C)[C@H](NC(=O)C1C2CCOC21)c1nc(-c2ccc(-c3ccc(-c4cnc([C@@H](NC(=O)C5C6CCOC65)C(C)(C)C)[nH]4)cc3)cc2)c[nH]1 (single isomer, unassigned) [Compound B-163]
  Fold-Synergistic 1a (Q30E): >100 fold

## CC(C)(C)[C@H](NC(=O)C1(C2(O)CCC(F)(F)CC2)CC1)c1nc2ccc(C#Cc3ccc4nc([C@@H](NC(=O)C5(C6(O)CCC(F)(F)CC6)CC5)C(C)(C)C)[nH]c4c3)cc2[nH]1.O=C(O)C(F)(F)F [Compound B41B]
  Fold-Synergistic 1a (Q30E): >100 fold

## CC(C)(C)[C@H](NC(=O)C1(NC(=O)CC(F)(F)F)CCCCC1)c1nc(-c2ccc(-c3ccc(-c4c[nH]c([C@@H](NC(=O)C5(NC(=O)CC(F)(F)F)CCCCC5)C(C)(C)C)n4)cc3)cc2)c[nH]1 [Compound W-255]
  Fold-Synergistic 1a (Q30E): >100 fold

## CC(C)CC(=O)N1CCC[C@H]1c1ncc(-c2ccc(-c3ccc(-c4cnc([C@@H](NC(=O)C(C)(C)C)C(C)C)[nH]4)cc3)cc2)[nH]1 [Compound Y-14]
  Fold-Synergistic 1a (Q30E): >100 fold

## CC(C)(C)[C@H](NC(=O)C1(C(O)c2ccccc2)CC1)c1nc(-c2ccc(-c3ccc(-c4c[nH]c([C@@H](NC(=O)C5(C(O)c6ccccc6)CC5)C(C)(C)C)n4)cc3)cc2)c[nH]1 (single isomer, unassigned) [Compound N-126A]
  Fold-Synergistic 1a (Q30E): >100 fold

## CC(C)[C@H](NC(=O)c1ccccc1Oc1ccccc1)c1ncc(-c2ccc(-c3ccc(-c4cnc([C@@H](NC(=O)c5ccccc5Oc5ccccc5)C(C)C)[nH]4)cc3)cc2)[nH]1 [Compound S-27]
  Fold-Synergistic 1a (Q30E): >10 fold

## CC(C)[C@H](NC(=O)CCCn1ccnc1)c1ncc(-c2ccc(-c3ccc(-c4cnc([C@@H](NC(=O)CCCn5ccnc5)C(C)C)[nH]4)cc3)cc2)[nH]1 [Compound S-58]
  Fold-Synergistic 1a (Q30E): <10 fold

## O=C(C(=O)N1C[C@H](O)C[C@H]1c1nc(-c2ccc(-c3ccc(-c4c[nH]c([C@@H]5C[C@@H](O)CN5C(=O)C(=O)N5CCC(F)(F)CC5)n4)cc3)cc2)c[nH]1)N1CCC(F)(F)CC1 [Compound L-142]
  Fold-Synergistic 1a (Q30E): >100 fold

## CC(C)(C)[C@H](NC(=O)C1CCC(F)(F)CC1)c1ncc(-c2ccc3cc(-c4ccc5nc([C@@H](NC(=O)C6CCC(F)(F)CC6)C(C)(C)C)[nH]c5c4)ccc3c2)[nH]1 [Compound B53]
  Fold-Synergistic 1a (Q30E): >100 fold

## CC(C)(C)OC(=O)N1C2CCC1(C(=O)N[C@H](c1nc(-c3ccc(-c4ccc(-c5c[nH]c([C@@H](NC(=O)C67CCC(CC6)N7C(=O)OC(C)(C)C)C(C)(C)C)n5)cc4)cc3)c[nH]1)C(C)(C)C)CC2 [Compound W-85]
  Fold-Synergistic 1a (Q30E): >100 fold

## CO[C@@H](C(=O)N[C@H](c1nc(-c2ccc(-c3ccc(-c4c[nH]c([C@@H](NC(=O)[C@H](OC)c5ccccc5)C(C)(C)C)n4)cc3)cc2)c[nH]1)C(C)(C)C)c1ccccc1 [Compound P-15]
  Fold-Synergistic 1a (Q30E): >100 fold

## CC1([C@H](NC(=O)C2(N3CCC(F)(F)CC3)COC2)c2nc(-c3ccc(-c4ccc(-c5c[nH]c([C@@H](NC(=O)C6(N7CCC(F)(F)CC7)COC6)C6(C)CC6)n5)cc4)cc3)c[nH]2)CC1 [Compound W-62]
  Fold-Synergistic 1a (Q30E): >100 fold

## CC(C)[C@H](NC(=O)C(C)(C)C)c1nc(-c2ccc(-c3ccc(-c4c[nH]c([C@@H](NC(=O)C(C)(C)C)C(C)C)n4)c(F)c3)cc2)c[nH]1.O=C(O)C(F)(F)F [Compound N-89]
  Fold-Synergistic 1a (Q30E): >100 fold

## COCC(NC(=O)C(C)(C)C)c1nc(-c2ccc(-c3ccc(-c4c[nH]c(C(COC)NC(=O)C(C)(C)C)n4)cc3)cc2)c[nH]1 [Compound L-105]
  Fold-Synergistic 1a (Q30E): >100 fold

## CN(C(=O)OC(C)(C)C)C1(C(=O)N[C@H](c2nc(-c3ccc(-c4ccc(-c5c[nH]c([C@@H](NC(=O)C6(N(C)C(=O)OC(C)(C)C)CC6)C(C)(C)C)n5)cc4)cc3)c[nH]2)C(C)(C)C)CC1.O=C(O)C(F)(F)F.O=C(O)C(F)(F)F [Compound L-13]
  Fold-Synergistic 1a (Q30E): >100 fold

## CC(C)[C@H](NC(=O)C(=O)C1(C)CCC(F)(F)CC1)c1ncc(-c2ccc(-c3ccc(-c4cnc([C@@H](NC(=O)C(=O)C5(C)CCC(F)(F)CC5)C(C)C)[nH]4)cc3)cc2)[nH]1 [Compound P-112]
  Fold-Synergistic 1a (Q30E): >100 fold

## CC(C)(C)C(NC(=O)C1CCC(O)CC1)c1nc(-c2ccc(-c3ccc(-c4c[nH]c(C(NC(=O)C5CCC(O)CC5)C(C)(C)C)n4)cc3)cc2)c[nH]1 (centres unmarked) [Compound W-134]
  Fold-Synergistic 1a (Q30E): >100 fold

## CC(C)CC(=O)N1[C@@H]2C[C@@H]2C[C@H]1c1nc(-c2ccc(-c3ccc(-c4c[nH]c([C@@H]5C[C@H]6C[C@H]6N5C(=O)CC(C)C)n4)cc3)cc2)c[nH]1 [Compound P-50]
  Fold-Synergistic 1a (Q30E): <10 fold
